Experimental data taken from patent publication US8394971B2, “Indole derivatives as selective androgen receptor modulators (SARMS)” (Janssen Pharmaceutica N.V., priority 2004, dated 2013).

What was measured:
[1] = molecular target: T1, androgen receptor (rat ventral prostate cytosol) (Rattus norvegicus, UniProt P15207); test: Androgen Receptor Binding Using Rat Ventral Prostate Cytosol; conditions: rat cytosol; for inhibition at 1 µM: concentration 1000 nM
T1 construct: from tissue; host or cells: ventral prostate of castrated male Sprague Dawley or Wistar rats, cytosol
T1 sequence (P15207 1-902): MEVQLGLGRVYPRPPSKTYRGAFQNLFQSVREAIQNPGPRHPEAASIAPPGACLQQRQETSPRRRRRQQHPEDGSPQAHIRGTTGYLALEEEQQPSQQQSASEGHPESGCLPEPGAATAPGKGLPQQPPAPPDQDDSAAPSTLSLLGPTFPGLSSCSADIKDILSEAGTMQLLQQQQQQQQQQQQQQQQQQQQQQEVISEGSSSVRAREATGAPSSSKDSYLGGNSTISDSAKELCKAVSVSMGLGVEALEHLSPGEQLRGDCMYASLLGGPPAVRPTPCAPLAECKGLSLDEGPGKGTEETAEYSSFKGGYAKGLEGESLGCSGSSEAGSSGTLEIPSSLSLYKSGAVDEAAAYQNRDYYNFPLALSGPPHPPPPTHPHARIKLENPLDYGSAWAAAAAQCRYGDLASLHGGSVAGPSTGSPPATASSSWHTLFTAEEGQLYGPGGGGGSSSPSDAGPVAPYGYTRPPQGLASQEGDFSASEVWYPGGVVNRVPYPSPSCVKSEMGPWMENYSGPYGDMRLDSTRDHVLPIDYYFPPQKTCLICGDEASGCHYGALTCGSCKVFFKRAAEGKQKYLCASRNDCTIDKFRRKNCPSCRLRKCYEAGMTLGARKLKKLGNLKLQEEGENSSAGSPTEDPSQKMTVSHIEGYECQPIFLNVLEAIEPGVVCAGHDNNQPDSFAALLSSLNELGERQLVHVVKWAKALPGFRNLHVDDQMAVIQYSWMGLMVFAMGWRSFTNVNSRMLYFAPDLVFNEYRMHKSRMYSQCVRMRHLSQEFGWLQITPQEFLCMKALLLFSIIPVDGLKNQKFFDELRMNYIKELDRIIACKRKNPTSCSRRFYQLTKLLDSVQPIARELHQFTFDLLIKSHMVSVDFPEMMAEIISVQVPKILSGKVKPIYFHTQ
Procedure: (§1) The assay was run on a 96 well plate with each well filled with a total reaction volume 150 μL, of a solution containing 5 pmol androgen receptor LBD (Panvera) or 30 μL of freshly prepared rat cytosol, 0.5 nM [^3H] […] (TED buffer contains 10 mM Tris.HCl pH 7.4, 1 mM sodium molybdate, 1.5 mM EDTA, 1 mM DTT and 10% (v/v) glycerol.)
(§2) On day one, the solution containing receptor, tracer and TED buffer was distributed into a 96 well plate. Diluted test compound or control vehicle was then added to individual wells and the plate incubated at 4° C. overnight.
(§3) On day two, to each well was then added 20 μL human γ-globulin (ICN 823102), prepared at 25 mg/ml in TE pH 8.0, and 55 μL 40% polyethylene glycol 8000 (JT Baker U222-08), prepared in TE pH 8.0. The plate was incubated at 4° C. for 60 minutes. During incubation, the harvester was rinsed with 10% PEG 8000, prepared in TE pH 8.0, and a GF/C Unifilter-96 was pre-wet with 10% PEG. The binding reaction was filtered, the retentate was washed three times with 10% PEG and dried under vacuum for a couple of minutes, then dried at 50° C. for 5 min and the plate was bottom sealed. Next, 25 μL of Microscint-20 (Packard) was added to the filter wells and the plate was top sealed. The plate wells were then counted on a TopCount (Packard).
Rat Prostate Cytosol Preparation:
Male Sprague Dawley or Wistar rats (Charles River, 200-300 g) were used for each preparation. The day before preparing the cytosol, the rats were castrated using standard surgical procedures.
The rats were euthanized by carbon dioxide asphyxiation. The rat prostates were quickly removed and placed on ice in pre-chilled, pre-weighed 50 mL plastic tubes. No more than five prostates were placed into one tube. The tubes were then weighed and the prostate tissue wet weights calculated.
To the chilled prostate tissue was then added […] of chilled homogenization buffer. The homogenization buffer was freshly prepared by mixing 10 mM Tris.HCl, pH 7.4, 1 mM sodium molybdate, 1.5 mM EDTA, 1 mM dithiothreitol, 10% (v/v) glycerol and 1% protease inhibitor cocktail (Sigma P 8340).
The prostate tissue was homogenized in a cold room using a pre-chilled Polytron PT3000 homogenizer (Brinkmann). Homogenization was performed at a speed setting of 20, three times for 10 sec bursts. The tubes containing the prostate tissue was kept on ice while homogenizing. The homogenate was allowed to rest on ice for 20 sec between bursts.
The homogenate was then placed into pre-chilled 3 mL polycarbonate ultracentrifuge tubes and centrifuged in the TLA-100 rotor of a TL-100 ultracentrifuge for 12 min at 100,000 rpm at 4° C. The resulting supernatant was stored in 1 mL aliquots at −80° C. until needed.
Binding to the androgen receptor was determined according to the protocol described in Example 86 using the above prepared rat cytosol.
% Inhibition was determined by testing dilutions of the test compound (usually duplicates of 10 μM) in the binding assay. Counts per well were measured and percents of inhibition determined. […] Counts per well were measured and IC50s determined by linear regression.

[2] = molecular target: T2, androgen receptor LBD (Panvera) (Rattus norvegicus, UniProt P15207); test: Androgen Receptor Filtration Binding Assay (PANVERA); conditions: Androgen Receptor Binding (Panvera); 0.5 nM [3H] R1881 tracer
T2 construct: 5 pmol androgen receptor LBD (Panvera); purchased Panvera
T2 sequence (P15207 651-882 limits assumed): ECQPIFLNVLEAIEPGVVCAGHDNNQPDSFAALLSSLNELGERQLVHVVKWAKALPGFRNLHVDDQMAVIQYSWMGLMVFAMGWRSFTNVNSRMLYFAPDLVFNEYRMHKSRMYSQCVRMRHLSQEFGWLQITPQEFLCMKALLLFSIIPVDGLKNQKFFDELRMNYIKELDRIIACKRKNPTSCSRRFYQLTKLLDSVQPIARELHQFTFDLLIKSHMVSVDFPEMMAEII
Procedure: as §1, §2, §3
Counts per well were measured and IC50s determined by linear regression.

IC50 ([1]; read-out: IC50)	Compound	inhibition at 1 µM [1]	IC50 [2]
6 µM	CS(=O)(=O)n1c(C2(O)CCNCC2)cc2cc(Cl)c(C(F)(F)F)cc21 [Compound #23]	-1.5%	54 µM
–	O=C(c1ccc(Cl)cc1)N1CCC(O)(c2cc3cc(Cl)c(C(F)(F)F)cc3[nH]2)CC1 [Compound #25]	-83.5%	8.8 µM
–	CS(=O)(=O)n1c(C2(O)CCN(C(=O)OCc3ccccc3)CC2)cc2cc(Cl)c(C(F)(F)F)cc21 [compound 19]	-55%	> 100 µM
–	CC(O)(COC(=O)c1ccc(Cl)cc1)c1cc2cc(Cl)c(C(F)(F)F)cc2[nH]1 (stereo not drawn) [compound 62]	69%	0.325 µM
